Results from patent US11534408B2, “Microcapsules and methods of using the same” (priority 2018, dated 2022).

System: Pseudomonas aeruginosa strain PAO1
Test: Diffusion of antibiotic molecules through the membrane of PAO1 nanoculture capsules
Type: cell-based
Method: FIGS. 9A-9C provide representative brightfield images of the presently disclosed nanoculture capsules. Pseudomonas aeruginosa PAO1 strain was used as the bacterial inoculum for the inner phase of the capsules. Antibiotics, including tobramycin and tetracycline, were introduced 24 hours after encapsulation. (9A) Untreated PAO1 nanoculture after 24 hours. (9B) PAO1 nanoculture treated with 50 ug/ml tobramycin. (9C) PAO1 nanoculture treated with 50 ug/ml tetracycline.
The presently disclosed polymer was used to investigate the diffusion of antibiotic molecules through the membrane. Pseudomonas aeruginosa strain PAO1 was used as the bacterial inoculum for the inner phase of the nanoculture capsules. Antibiotics, including tobramycin and tetracycline, to which the PAO1 were sensitive, were introduced 24 hours after encapsulation. A 24-hour incubation period allowed for the confluent growth of PAO1. […] Microcapsules used in FIGS. 9A-9C were generated by using (H:V)=(0.6:1) with 3 ppm Pt catalyst and 0% DMAA. The generated microcapsules were heat treated for 5 minutes at 70° C. immediately after encapsulation. Following heat treatment, capsules were incubated at 37° C. for 24 hours.

| Compound | PAO1 cells in nanoculture capsules after antibiotic treatment (50 ug/ml antibiotic introduced 24 hours after encapsulation, capsules (H:V)=(0.6:1), 3 ppm Pt catalyst, 0% DMAA, heat treated 5 minutes at 70° C.) | Ability to permeate and diffuse through the membrane (not told) | Ability to permeate and diffuse through the membrane (inferred from PAO1 killing at 50 ug/ml, membrane (H:V)=(0.6:1), 3 ppm Pt, 0% DMAA) |
| --- | --- | --- | --- |
| NC[C@H]1O[C@H](O[C@H]2[C@H](O)[C@@H](O[C@H]3O[C@H](CO)[C@@H](O)[C@H](N)[C@H]3O)[C@H](N)C[C@@H]2N)[C@H](N)C[C@@H]1O [tobramycin] | persisted | unable to permeate and diffuse through the membrane | – |
| CN(C)[C@@H]1C(O)=C(C(N)=O)C(=O)[C@@]2(O)C(O)=C3C(=O)c4c(O)cccc4[C@@](C)(O)[C@H]3C[C@@H]12 [tetracycline] | – | – | able to diffuse through the membrane |
